# Measurements as given in US9186358B2, “Combination therapy for treating or preventing an inflammatory skin disorder” (GALDERMA LABORATORIES, L.P., priority 2009, dated 2015).
# Tests used:
# AA-induced ear edema = experiment: Arachidonic acid (AA)-induced acute ear edema in mice; type: in vivo, mice (BALB/c ByJ Rj); design: Edema Mean: unit not given here; settings: for reduced AA-induced ear edema in mice by up to: single topical application, highest over 1, 2 and 4 h; for Edema Mean / Inhibition vs AA %: topical with AA 4%
# Description: Positive control compound, indomethacin (CD0016), was dissolved in the AA solution at 5% by weight. […] Different compounds at different dosages were tested on 10 groups of animals, each group having 5 mice (see Table 4). […] After the last measurement, the animals were sacrificed by carbon dioxide following a preapproved protocol. The mean of the ear thickness measured from 5 animals in each of the 10 groups was calculated. The anti-inflammatory activity of a test compound was measured by its ability to reduce AA-induced ear edema, i.e., as the percentage of reduction in ear thickness of animals treated with the test compound and AA as compared with that treated with AA alone.
# TPA-induced ear edema = TPA-induced ear edema in mice; type: in vivo, mice (BALB/c ByJ Rj); design: Ear Edema Mean: unit not given beside the values; settings: single topical application with TPA 0.01%, 6 h
# Description: The edema inducer, TPA, was dissolved in ethanol at 0.01% by weight to obtain a TPA solution (“TPA solution”). […] Positive control compound, betametasone valerate (CD0153), was dissolved in the TPA solution at 0.01% by weight. […] Different compounds at different dosages were tested on 10 groups of animals, each group having 5 mice (see Table 2). [table] The ear thickness of each of the 50 animals was measured at 6 hours after the compound application. After the measurement, the animals were sacrificed by carbon dioxide following a preapproved protocol. The mean of the ear thickness measured from 5 animals in each of the 10 groups was calculated. The anti-inflammatory activity of a test compound was measured by its ability to reduce TPA-induced ear edema, i.e., as the percentage of reduction in ear thickness of animals treated with both the test compound and TPA as compared with that treated with TPA alone.
# [1] = CD07805 at 0.2%, 1 h Measurement
# [2] = CD07805 at 0.2%, 2 h Measurement
# [3] = CD07805 at 0.2%, 4 h Measurement
# [4] = CD08100/02 at 0.1%, 1 h Measurement
# [5] = CD08100/02 at 0.1%, 2 h Measurement
# [6] = CD08100/02 at 0.1%, 4 h Measurement
# [7] = CD08100/02 at 0.3%, 1 h Measurement
# [8] = CD08100/02 at 0.3%, 2 h Measurement
# [9] = CD08100/02 at 0.3%, 4 h Measurement
# [10] = CD08100/02 at 1%, 1 h Measurement
smiles,measurement,setting,value
"COc1ccc2c(c1)c(CC(=O)O)c(C)n2C(=O)c1ccc(Cl)cc1 [CD0016, indomethacin]",reduced AA-induced ear edema in mice by up to,AA-induced ear edema; CD0016 at 5%,up to 94.2%
same,Edema Mean,"AA-induced ear edema; CD0016 at 5%, 1 h Measurement",0.8
same,Inhibition vs AA %,"AA-induced ear edema; CD0016 at 5%, 1 h Measurement",93.1%
same,Edema Mean,"AA-induced ear edema; CD0016 at 5%, 2 h Measurement",0.6
same,Inhibition vs AA %,"AA-induced ear edema; CD0016 at 5%, 2 h Measurement",94.2%
same,Edema Mean,"AA-induced ear edema; CD0016 at 5%, 4 h Measurement",0.4
same,Inhibition vs AA %,"AA-induced ear edema; CD0016 at 5%, 4 h Measurement",93.5%
"CCCCC(=O)O[C@]1(C(=O)CO)[C@@H](C)C[C@H]2[C@@H]3CCC4=CC(=O)C=C[C@]4(C)[C@@]3(F)[C@@H](O)C[C@@]21C [CD0153, betametasone valerate]",Ear Edema Mean,TPA-induced ear edema; CD0153 at 0.01%,0.40
same,Inhibition vs TPA (%),TPA-induced ear edema; CD0153 at 0.01%,97.5%
"Brc1c(NC2=NCCN2)ccc2nccnc12 [CD07805, (5-bromo-quinoxalin-6-yl)-(4,5-dihydro-1H-imidazol-2-yl)-amine]",Ear Edema Mean,TPA-induced ear edema; CD07805 at 0.2%,8.60
same,Inhibition vs TPA (%),TPA-induced ear edema; CD07805 at 0.2%,46.3%
same,reduced AA-induced ear edema in mice by up to,AA-induced ear edema; CD07805 at 0.2%,up to 80.8%
same,Edema Mean,AA-induced ear edema; [1],2.8
same,Inhibition vs AA %,AA-induced ear edema; [1],75.9%
same,Edema Mean,AA-induced ear edema; [2],2
same,Inhibition vs AA %,AA-induced ear edema; [2],80.8%
same,Edema Mean,AA-induced ear edema; [3],1.6
same,Inhibition vs AA %,AA-induced ear edema; [3],74.2%
"O=C(O)Cc1ccccc1Nc1c(Cl)cccc1Cl [CD08100/02, 2-[2-(2,6-dichlorophenylamino)phenyl]acetic acid]",Ear Edema Mean,TPA-induced ear edema; CD08100/02 at 0.1%,5.80
same,Inhibition vs TPA (%),TPA-induced ear edema; CD08100/02 at 0.1%,63.8%
same,Ear Edema Mean,TPA-induced ear edema; CD08100/02 at 0.3%,6.40
same,Inhibition vs TPA (%),TPA-induced ear edema; CD08100/02 at 0.3%,60.0%
same,Ear Edema Mean,TPA-induced ear edema; CD08100/02 at 1%,4.80
same,Inhibition vs TPA (%),TPA-induced ear edema; CD08100/02 at 1%,70.0%
same,reduced AA-induced ear edema in mice by up to,AA-induced ear edema; CD08100/02 at 0.1%,up to 71.2%
same,Edema Mean,AA-induced ear edema; [4],4.2
same,Inhibition vs AA %,AA-induced ear edema; [4],63.8%
same,Edema Mean,AA-induced ear edema; [5],3
same,Inhibition vs AA %,AA-induced ear edema; [5],71.2%
same,Edema Mean,AA-induced ear edema; [6],2
same,Inhibition vs AA %,AA-induced ear edema; [6],67.7%
same,reduced AA-induced ear edema in mice by up to,AA-induced ear edema; CD08100/02 at 0.3%,≤ 80.6%
same,Edema Mean,AA-induced ear edema; [7],3.6
same,Inhibition vs AA %,AA-induced ear edema; [7],69.0%
same,Edema Mean,AA-induced ear edema; [8],2.2
same,Inhibition vs AA %,AA-induced ear edema; [8],78.8%
same,Edema Mean,AA-induced ear edema; [9],1.2
same,Inhibition vs AA %,AA-induced ear edema; [9],80.6%
same,reduced AA-induced ear edema in mice by up to,AA-induced ear edema; CD08100/02 at 1%,≤ 83.9%
same,Edema Mean,AA-induced ear edema; [10],2
same,Inhibition vs AA %,AA-induced ear edema; [10],82.8%
same,Edema Mean,"AA-induced ear edema; CD08100/02 at 1%, 2 h Measurement",1
same,Edema Mean,"AA-induced ear edema; CD08100/02 at 1%, 4 h Measurement",1
